According to ChEMBL document CHEMBL5055665, “Discovery of the Triazolo[1,5-a]Pyrimidine-Based Derivative WS-898 as a Highly Efficacious and Orally Bioavailable ABCB1 Inhibitor Capable of Overcoming Multidrug Resistance” (J Med Chem, 2021):
pIC50: −log10 of the molar value.

Key:
[1] = system: SW-620; assay: Reversal of resistance to paclitaxel-induced cytotoxicity in human SW-620/AD300 cells assessed as reduction in paclitaxel IC50 at 5 uM preincubated for 4 hrs followed by paclitaxel addition and measured after 72 hrs by MTT assay (reference value: 4.23 +/- 0.50 uM); type: functional, cell-based
[2] = system: SW-620; assay: Reversal of resistance to paclitaxel-induced cytotoxicity in human SW-620/AD300 cells assessed as reversal fold at 5 uM preincubated for 4 hrs followed by paclitaxel addition and measured after 72 hrs by MTT assay relative to paclitaxel; type: functional; conditions: time 76 hrs
[3] = system: SW-620; assay: Reversal of resistance to paclitaxel-induced cytotoxicity in human SW-620/AD300 cells assessed as reversal fold at 2 uM preincubated for 4 hrs followed by paclitaxel addition and measured after 72 hrs by MTT assay relative to paclitaxel; type: functional; conditions: time 76 hrs
[4] = system: SW-620; assay: Reversal of resistance to paclitaxel-induced cytotoxicity in human SW-620/AD300 cells assessed as reduction in paclitaxel IC50 at 2 uM preincubated for 4 hrs followed by paclitaxel addition and measured after 72 hrs by MTT assay (reference value: 4.23 +/- 0.50 uM); type: functional, cell-based
[5] = system: SW-620; assay: cells; conditions: Homo sapiens
[6] = system: SW-620; assay: Reversal of resistance to paclitaxel-induced cytotoxicity in human SW-620/AD300 cells assessed as reversal fold at 4 uM preincubated for 4 hrs followed by paclitaxel addition and measured after 72 hrs by MTT assay relative to paclitaxel; type: functional; conditions: time 76 hrs
[7] = system: SW-620; assay: Reversal of resistance to paclitaxel-induced cytotoxicity in human SW-620/AD300 cells assessed as reduction in paclitaxel IC50 at 1 uM preincubated for 4 hrs followed by paclitaxel addition and measured after 72 hrs by MTT assay (reference value: 4.23 +/- 0.50 uM); type: functional, cell-based
[8] = system: SW-620; assay: Reversal of resistance to paclitaxel-induced cytotoxicity in human SW-620/AD300 cells assessed as reversal fold at 1 uM preincubated for 4 hrs followed by paclitaxel addition and measured after 72 hrs by MTT assay relative to paclitaxel; type: functional; conditions: time 76 hrs
[9] = system: SW-620; assay: Reversal of resistance to paclitaxel-induced cytotoxicity in human SW-620/AD300 cells assessed as reduction in paclitaxel IC50 at 20 uM preincubated for 4 hrs followed by paclitaxel addition and measured after 72 hrs by MTT assay (reference value: 4.23 +/- 0.50 uM); type: functional, cell-based
[10] = system: SW-620; assay: Reversal of resistance to paclitaxel-induced cytotoxicity in human SW-620/AD300 cells assessed as reversal fold at 20 uM preincubated for 4 hrs followed by paclitaxel addition and measured after 72 hrs by MTT assay relative to paclitaxel; type: functional; conditions: time 76 hrs
[11] = system: SW-620; assay: Reversal of resistance to paclitaxel-induced cytotoxicity in human SW-620/AD300 cells assessed as reversal fold at 10 uM preincubated for 4 hrs followed by paclitaxel addition and measured after 72 hrs by MTT assay relative to paclitaxel; type: functional; conditions: time 76 hrs
[12] = system: SW-620; assay: Reversal of resistance to paclitaxel-induced cytotoxicity in human SW-620/AD300 cells assessed as reduction in paclitaxel IC50 at 10 uM preincubated for 4 hrs followed by paclitaxel addition and measured after 72 hrs by MTT assay (reference value: 4.23 +/- 0.50 uM); type: functional, cell-based
[13] = system: SW-620; assay: Reversal of resistance to paclitaxel-induced cytotoxicity in human SW-620/AD300 cells assessed as reversal fold at 8 uM preincubated for 4 hrs followed by paclitaxel addition and measured after 72 hrs by MTT assay relative to paclitaxel; type: functional; conditions: time 76 hrs
[14] = system: SW-620; assay: Reversal of resistance to paclitaxel-induced cytotoxicity in human SW-620/AD300 cells assessed as reduction in paclitaxel IC50 at 8 uM preincubated for 4 hrs followed by paclitaxel addition and measured after 72 hrs by MTT assay (reference value: 4.23 +/- 0.50 uM); type: functional, cell-based

Row | Compound | fold change (FC) [3] | pIC50 [4] | other results
1 | Cc1cc(Nc2ccc(C(=O)/C=C/c3ccc4ccccc4c3)cc2)n2nc(SCc3ccccc3)nc2n1 |  |  | pIC50 [1]: 6.52; fold change (FC) [2]: 14.1
2 | Cc1ccc(/C=C/C(=O)c2ccc(Nc3cc(C)nc4nc(SCc5nc6ccccc6[nH]5)nn34)cc2)cc1 | 2.78 | 5.82 | 
3 | C#CCSc1nc2nc(C)cc(Nc3ccc(C(=O)/C=C/c4ccc5ccccc5c4)cc3)n2n1 |  |  | pIC50 [5]: 6.06; fold change (FC) [6]: 4.86
4 | Cc1cc(Nc2ccc(C(=O)/C=C/c3ccc(F)cc3)cc2)n2nc(SCc3nc4ccccc4[nH]3)nc2n1 | 49.8 | 7.07 | 
5 | Cc1cc(Nc2ccc(C(=O)/C=C/c3ccccc3F)cc2)n2nc(SCc3nc4ccccc4[nH]3)nc2n1 | 16.92 | 6.60 | 
6 | COc1cc(OC)c(/C=C/C(=O)c2ccc(Nc3cc(C)nc4nc(SCc5nc6ccccc6[nH]5)nn34)cc2)c(OC)c1 |  |  | pIC50 [7]: 6.59; fold change (FC) [8]: 16.27
7 | CC(=O)c1ccc(Nc2cc(C)nc3nc(SCc4nc5ccccc5[nH]4)nn23)cc1 |  |  | pIC50 [9]: 5.79; fold change (FC) [10]: 2.6
8 | O[C@@H](COc1cccc2ncccc12)CN1CCN([C@@H]2c3ccccc3[C@@H]3[C@H](c4ccccc42)C3(F)F)CC1 [ZOSUQUIDAR] | 71.1 | 7.23 | 
9 | Cc1cc(Nc2ccc(C(=O)/C=C/c3ccc4ccccc4c3)cc2)n2nc(SCc3cccc4ccccc34)nc2n1 | 62.21 | 7.17 | 
10 | Cc1cc(Nc2ccc(C(=O)/C=C/c3ccc4ccccc4c3)cc2)n2nc(SCc3ccc(C(F)(F)F)cc3)nc2n1 |  |  | fold change (FC) [11]: 2.92; pIC50 [12]: 5.84
11 | Cc1cc(Nc2ccc(C(=O)/C=C/c3ccc(-n4cccn4)cc3)cc2)n2nc(SCc3nc4ccccc4[nH]3)nc2n1 | 12.44 | 6.47 | 
12 | Cc1cc(Nc2ccc(C(=O)/C=C/c3ccc4c(c3)OC(F)(F)O4)cc2)n2nc(SCc3nc4ccccc4[nH]3)nc2n1 |  |  | pIC50 [7]: 6.62; fold change (FC) [8]: 17.63
13 | Cc1cc(Nc2ccc(C(=O)/C=C/c3cccc(F)c3)cc2)n2nc(SCc3nc4ccccc4[nH]3)nc2n1 | 7.17 | 6.23 | 
14 | O=C(/C=C/c1ccc2ccccc2c1)c1ccc(Nc2c3c(nc4ncnn24)CCC3)cc1 |  |  | fold change (FC) [13]: 4.03; pIC50 [14]: 5.98
15 | Cc1cc(Nc2ccc(C(=O)/C=C/c3ccc(Br)cn3)cc2)n2nc(SCc3nc4ccccc4[nH]3)nc2n1 |  |  | pIC50 [7]: 6.96; fold change (FC) [8]: 39.09
16 | Cc1cc(Nc2ccc(C(=O)/C=C/c3ccc(Cl)cc3)cc2)n2nc(SCc3nc4ccccc4[nH]3)nc2n1 | 18.39 | 6.64 | 
17 | Cc1cc(Nc2ccc(C(=O)/C=C/c3ccc4ccccc4c3)cc2)n2nc(SCc3ccc(Cl)cc3)nc2n1 |  |  | pIC50 [1]: 6.24; fold change (FC) [2]: 7.42
18 | Cc1cc(Nc2ccc(C(=O)/C=C/c3ccc4ccccc4c3)cc2)n2nc(SCc3ccccc3Br)nc2n1 |  |  | pIC50 [1]: 6.38; fold change (FC) [2]: 10.07
19 | Cc1cc(Nc2ccc(C(=O)/C=C/c3cccs3)cc2)n2nc(SCc3nc4ccccc4[nH]3)nc2n1 | 5.15 | 6.09 | 
20 | Cc1cc(Nc2ccc(C(=O)/C=C/c3ccc4ccccc4c3)cc2)n2nc(SCc3c(Cl)cccc3Cl)nc2n1 |  |  | pIC50 [5]: 6.16; fold change (FC) [6]: 6.13
21 | COc1ccc(/C=C/C(=O)c2ccc(Nc3cc(C)nc4nc(SCc5nc6ccccc6[nH]5)nn34)cc2)cc1F | 30.21 | 6.85 | 
22 | Cc1cc(Nc2ccc(C(=O)/C=C/c3ccc4ccccc4c3)cc2)n2nc(SCc3ccc(Br)cc3)nc2n1 |  |  | pIC50 [1]: 6.43; fold change (FC) [2]: 11.43
23 | Cc1cc(Nc2ccc(C(=O)/C=C/c3ccccc3Cl)cc2)n2nc(SCc3nc4ccccc4[nH]3)nc2n1 | 6.22 | 6.17 | 
24 | Cc1cc(Nc2ccc(C(=O)/C=C/c3ccc4ccccc4c3)cc2)n2nc(SC(=O)c3csc4ccc(Cl)cc34)nc2n1 | 120.86 | 7.46 | 
